The text below walks through data of patent US11020457B2, “Compositions and methods for protecting the kidney from ischemia reperfusion injury” (University of Virginia Patent Foundation, priority 2013, dated 2021).

One test relates to TKPTS cells. Briefly: In-vitro hypoxia and re-oxygenation of TKPTS cells, Annexin V/PI flow cytometry. Format: cell-based, mouse. The following applies: 50 μM hepcidin for 24 hours, 1% hypoxia 6 hours, 6 hours re-oxygenation; p<0.005. On the procedure: A mouse proximal tubule cell line (TKPTS cells, kindly provided by Dr. E. Bello-Reuss, University of Texas Medical Branch, Galveston, Tex.) was used in these studies. The cells were cultured in advanced DMEM/F12 medium supplemented with glutamine, 7.5% FBS and antibiotics. Cells were grown to 80% confluence and maintained at 37° C. in 5% CO2. All experiments were performed in serum free DMEM/F12 medium for a maximum of 24 hours.
TKPTS cells were subjected to hypoxia using a hypoxic chamber (Stemcell Technologies) for 6 hrs (5% CO2, 1% O2, and 94% N2) followed by re-oxygenation for 6 hrs (5% CO2, 21% 02, and 74% N2). Three culture conditions were set up: 1. Normoxia (which served as the base line control); 2. Hypoxia; and 3. Cells pretreated with 50 μM hepcidin and subjected to hypoxia. Experiments were carried out in serum free advanced DMEM/F12 medium. At the end of re-oxygenation, cells were stained with Annexin V/PI and extent of apoptosis was determined using flow cytometry.
To investigate if hepcidin has a direct anti-apoptotic effect on renal tubular epithelial cells, we subjected murine proximal renal tubular cells (TKPTS) to hypoxia-reoxygenation injury in vitro (34). TKPTS cells were first treated with or without 50 μM hepcidin for 24 hours in 5% serum containing medium. After transferring to serum free medium, the cells were then cultured in 1% hypoxia for 6 hours. […]
For orientation: Flow cytometry measures light scatter and fluorescence of single cells or particles in a stream.

Test [1] relates to C57BL/6 mice. Briefly: Renal IRI in WT mice: flow cytometry of kidney immune cells. Conditions: hepcidin vs untreated IRI, p<0.005. Format: in vivo. On the procedure: All experiments were performed in accordance with the National Institutes of Health and Institutional Animal Care and Use Guidelines. The Animal Care and Use Committee of the University of Virginia approved all procedures and protocols. C57BL/6 mice from the Jackson Laboratory and hepcidin knockout mice (HAMP−/−), a kind gift from Dr Cindy Roy (John Hopkins University) were used in this study. All experiments were performed on 8-10 weeks old male mice. Kidney ischemia-reperfusion surgery was performed as previously reported (44). The core temperature of the mice was maintained between 34° C. and 36° C. using a heating pad. After anesthetizing the mice (ketamine, 12 mg/ml; atropine, 0.48 mg/ml; xylazine, 24 mg/ml; […] mixture administered per 20 g body weight), bilateral flank incisions were made, both renal pedicles were exposed, and cross-clamped for 26 minutes (severe I/R injury) or 24 minutes (mild I/R injury). After the determined ischemia, clamps were removed, and kidneys were allowed to reperfuse for 24 hours. […]
Single-cell suspensions from the kidney were prepared using standard methods. […] Flow cytometry data were acquired using BD FACSCalibur (BD Biosciences, San Jose, Calif.) with Cytek eight-color flow cytometry upgrade (Cytek Development, Fremont, Calif.) and analyzed with FlowJo software 9.0 (Tree Star Inc., Ashland, Oreg.). […]

For test [2], the system named is hepcidin knockout mice (HAMP−/−). Briefly: Renal IRI in HAMP-/- mice: splenic ferroportin and splenic H-Ferritin. In kind it is in vivo. The following applies: for splenic H-Ferritin: HAMP-/- Hepcidin-IRI vs HAMP-/- IRI and vs Sham, p<0.005, FIG. 9c. The method, then:
(§1) All experiments were performed in accordance with the National Institutes of Health and Institutional Animal Care and Use Guidelines. The Animal Care and Use Committee of the University of Virginia approved all procedures and protocols. C57BL/6 mice from the Jackson Laboratory and hepcidin knockout mice (HAMP−/−), a kind gift from Dr Cindy Roy (John Hopkins University) were used in this study. All experiments were performed on 8-10 weeks old male mice. Kidney ischemia-reperfusion surgery was performed as previously reported (44). The core temperature of the mice was maintained between 34° C. and 36° C. using a heating pad. After anesthetizing the mice (ketamine, 12 mg/ml; atropine, 0.48 mg/ml; xylazine, 24 mg/ml; […] mixture administered per 20 g body weight), bilateral flank incisions were made, both renal pedicles were exposed, and cross-clamped for 26 minutes (severe I/R injury) or 24 minutes (mild I/R injury). After the determined ischemia, clamps were removed, and kidneys were allowed to reperfuse for 24 hours. Ambient postoperative air temperature was maintained between 30° C. and 32° C. until mice had fully recovered. Sham-operated animals underwent bilateral flank incisions without clamping of renal pedicles. Twenty-four hours later, mice were euthanized, and tissues were harvested.
Snap frozen tissue sections were homogenized in Tris-Triton tissue lysis buffer containing complete protease inhibitor cocktail using a Dounce Homogenizer. Membrane fractions were isolated from the whole kidney lysate using membrane isolation kit (Thermo Pierce) to determine ferroportin expression. H-Ferritin was measured in the whole kidney and spleen lysates. […] The primary antibodies were detected with Donkey anti-goat Alexa 800 and goat anti-rabbit Alexa 800 antibodies (LiCor Bioscience). Mouse monoclonal GAPDH and β-Actin (Abcam) were used as the loading controls and detected using Donkey anti Mouse Alexa 680 antibody (LiCor Bioscience). Quantitation of data was performed using densitometry software (Licor Bioscience).

In test [3] the test system is C57BL/6 mice. Briefly: Renal IRI in WT mice: IL-6 levels by ELISA. Format: in vivo. On the procedure: as §1, with “Twenty-four hours later, mice were euthanized, and tissues were harvested.” left out
Serum iron (Abcam), hepcidin (Intrinsic Lifescience) and IL-6 levels (eBioscience) were measured using commercial ELISA kits, as per manufacturers instructions.

Test [4] concerns iron loaded bone marrow macrophages. Conditions: hepcidin pretreatment; cited from earlier work.

Entries after “also recorded” stand apart in the source; their conditions may differ.

As for “Mouse hepcidin 25 (DTNFPICIFCCKCCNNSQCGICCKT; listed as Mus musculus)”, in the test with TKPTS cells, the “Annexin V/PI positive cells (apoptosis/necrosis)” value is on record as “significantly lower Annexin V/PI staining compared to untreated cells; also recorded: reduced to levels seen under normoxia”. The “frequency of kidney CD45+ cells” value with C57BL/6 mice [1] (FIG. 4b-c) is “reduced renal inflammatory cell infiltration by almost half”. Also, in the test with C57BL/6 mice [1] (FIG. 4c), the kidney neutrophils result was “significantly reduced IRI-induced renal neutrophil inflammation”. Moreover, the “splenic H-Ferritin” value in test [2] was “increased splenic H-Ferritin levels”; in test [2] (listed as hepcidin), “significantly higher H-Ferritin compared to both untreated IRI mice and sham controls”. The splenic ferroportin expression entry in test [2] (hepcidin reconstitution in HAMP-/- mice, renal IRI) is reported as “lower ferroportin expression than sham-operated mice”. Besides, the “serum IL-6 levels” value with C57BL/6 mice [3] (WT-IRI Vs WT Hepcidin-IRI, p<0.007, FIG. 10a) is recorded as “prevented IRI-induced increase in IL-6 levels; also recorded: prevented by Hepcidin”. For the same substance, in the test on C57BL/6 mice [3] (hepcidin treatment, renal IRI (discussion)), the “splenic, renal, and systemic IL-6 levels” value was “significantly prevented IRI-induced increase in splenic, renal, and systemic IL-6 levels”. Further, in test [4], the “LPS-induced IL-6 and TNF alpha production” value is “reduced LPS-induced IL-6 and TNF alpha production”.
